Consider 15 molecules from patent US6486153B1, “Phenylindole derivatives as 5-HT2A receptor ligands” (Merck Sharp & Dohme Ltd., priority 1997, dated 2002).

Counter-ions that a name gives are not always drawn.

The target of one data set is human dopamine D2 receptor (Homo sapiens, UniProt P14416). Particulars: cited from earlier work.
human dopamine D2 receptor, sequence (P14416 whole entry): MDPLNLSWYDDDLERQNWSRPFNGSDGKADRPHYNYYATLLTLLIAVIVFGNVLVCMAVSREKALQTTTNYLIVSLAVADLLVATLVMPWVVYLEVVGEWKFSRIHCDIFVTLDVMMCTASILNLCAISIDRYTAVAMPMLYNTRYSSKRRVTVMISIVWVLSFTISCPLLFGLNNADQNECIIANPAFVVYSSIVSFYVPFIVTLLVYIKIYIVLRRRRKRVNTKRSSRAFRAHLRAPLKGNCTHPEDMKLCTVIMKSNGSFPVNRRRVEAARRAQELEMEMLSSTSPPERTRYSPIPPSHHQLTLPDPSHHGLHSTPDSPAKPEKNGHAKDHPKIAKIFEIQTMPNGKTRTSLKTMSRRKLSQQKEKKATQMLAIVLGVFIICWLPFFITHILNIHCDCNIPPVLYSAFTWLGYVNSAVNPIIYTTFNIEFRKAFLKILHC
For the molecule `COc1cccc(C(O)C2CCN(CCc3ccc(F)cc3)CC2)c1OC` (stereo not drawn) [MDL-100,907, (+)-α-(2,3-dimethoxyphenyl)-1-[2-(4-fluorophenyl)ethyl]-4-piperidinemethanol], the “activity at the human dopamine D2 receptor” value is recorded as “essentially devoid of activity”.

The next data set relates to schizophrenic patients. Conditions: multicentre, placebo-controlled study; cited from earlier work.
As to `COc1cccc(C(O)C2CCN(CCc3ccc(F)cc3)CC2)c1OC` (stereo not drawn) [MDL-100,907, (+)-α-(2,3-dimethoxyphenyl)-1-[2-(4-fluorophenyl)ethyl]-4-piperidinemethanol], the “antipsychotic efficacy in clinical study” value is given as “demonstrated efficacy” and the “neurological adverse effects in clinical study” value is on record as “no neurological adverse effects”.

Test system in the next data set: not given
Details: not given
As to `COc1cccc2[nH]c(-c3ccccc3)c(CCN3CCCCC3)c12`, the melting point lay within 260 to 262 °C.
On the same count and under the same terms, the result for `Brc1ccc2[nH]c(-c3ccccc3)c(CCN3CCCCC3)c2c1` (as salt: oxalate) reads 121 to 122 °C; that for `Brc1cccc2c(CCN3CCCCC3)c(-c3ccccc3)[nH]c12` (as salt: oxalate), 206 to 207 °C; that for `Clc1cccc2c(CCN3CCCCC3)c(-c3ccccc3)[nH]c12` (as salt: oxalate), 178 to 179 °C.
The same measure, in the same setting: the result for `Cc1ccc2[nH]c(-c3ccccc3)c(CCN3CCCCC3)c2c1` (as salt: oxalate) reads 163 to 164 °C; that for `Fc1ccc2c(CCN3CCCCC3)c(-c3ccccc3)[nH]c2c1` (as salt: oxalate), 214 to 215 °C.
For `Brc1cccc2[nH]c(-c3ccccc3)c(CCN3CCCCC3)c12` (as salt: oxalate), the melting point was more than 230 °C.
On the same count and under the same terms, the result for `Brc1ccc2c(CCN3CCCCC3)c(-c3ccccc3)[nH]c2c1` (as salt: oxalate) reads more than 230 °C; that for `Cc1cccc2c(CCN3CCCCC3)c(-c3ccccc3)[nH]c12` (as salt: oxalate), 159 to 161 °C.
For `Fc1cc(F)c2[nH]c(-c3ccccc3)c(CCN3CCCCC3)c2c1` (as salt: oxalate), the melting point fell in the range of 185 to 187 °C.
Same read-out and setting: the value for `c1ccc(-c2ccc3c(CCN4CCCCC4)c(-c4ccccc4)[nH]c3c2)cc1` (as salt: oxalate) was 129 to 131 °C; that for `COc1cccc2c(CCN3CCCCC3)c(-c3ccccc3)[nH]c12` (as salt: oxalate) was 203 to 205 °C; that for `CC(Cc1c(-c2ccccc2)[nH]c2ccccc12)N1CCCCC1` (centres unmarked) (as salt: oxalate) was 240 °C.
The molecule `Fc1ccc2[nH]c(-c3ccccc3)c(CCN3CCCCC3)c2c1` (as salt: trifluoroacetic acid salt) had a melting point of 141 to 143 °C.
